Measurements: US7109170B2, “Region of factor IXa protease domain that interacts with factor VIIIa and methods therefor” (Saint Louis University, priority 1999, dated 2006)
Peptide text beside a SMILES is read from it.

Target: T1, factor IXa (Homo sapiens, UniProt P00740)
T1 construct: heavy chain of factor IXa comprised of residues 181–415; light chain of factor IXa comprised of residues 1–145
Experiment: Factor IX peptide competition assay in the absence of factor VIIIa
Assay type: biochemical
Procedure: Each reaction mixture contained 20 nM of factor IXa, 100 nM of factor X, various concentrations of peptide, 25 μM of phospholipid, and 5 mM CaCl2 in TBS/BSA. The reaction mixtures were incubated for 2.5, 5, 10, 15, and 20 minutes at 37° C. and were stopped with the addition of 1.5 μL of 0.5 M EDTA and placed on ice. Forty μL of each reaction was 5 added to 100 μL of TBS/BSA in a 96 well microtiter plate and S-2222 was added to a final concentration of 100 μM.

inhibitory effect on factor IXa's ability to activate factor X: no inhibitory effect
SMILES: CC(C)C[C@H](N)C(=O)N[C@H](C(=O)N[C@@H](CC(=O)O)C(=O)N[C@@H](CCCNC(=N)N)C(=O)N[C@@H](C)C(=O)N[C@H](C(=O)O)[C@@H](C)O)C(C)C [Protein P-4351, LVDRAT] (H-LVDRAT-OH; N-terminus and C-terminus assumed)
